Ends that are not written are not given here. Some results are limits rather than exact numbers.

The values below come from patent US7297676B2, “Thymosin alpha 1 peptide/polymer conjugates” (SciClone Pharmaceuticals, Inc., priority 2001, dated 2007).

For data set [1] the following is noted: subcutaneously injected; cited from earlier work.
The nature of data set [2]: Adverse events observed in the rat studies. Format: in vivo. The protocol:
In the following examples, which are not intended to be limiting, a continuous infusion of TA1 was evaluated in a cancer therapy model with the use of surgically implanted osmotic minipumps, which deliver fluids at a constant flow rate for 5 days. Rats were given 5-fluorouracil (5-FU) to cause immune suppression, and then treated with injected or infused TA1 8 days later (the nadir of white cell count after 5-FU). Treatment groups, 8 rats each, were: control (minipumps with saline); low dose TA1 (0.2 mg/Kg sc injection; empty minipumps); high dose TA1 (3.5 mg/Kg sc injection; empty minipumps); and high dose infused TA1 (3.5 mg/Kg infused by minipumps). Immune parameters were determined at baseline and 8 days after 5-FU treatment (day 1 of TA1 treatment), and also at 5, 12, 20, and 27 days after TA1 treatment.
8 days after 5-FU treatment, rats were randomly assigned to one of the following groups (n=15): • Control (saline in minipump) • High dose TA1, injected s.c. at 3.5 mg/Kg (with empty minipumps) • Continuous infusion TA1, provided by minipump at 3.5 mg/Kg/5 days

For data set [3] the following is noted: cited from earlier work.
In the next data set the test system is NK activity. Briefly: Example 1: return of NK activity in 5-FU immune-suppressed rats. Format: in vivo, rat. Conditions: one injection, molar equivalent of 200 ug/kg thymosin, compared with Thymosin alpha 1 200 ug/kg. The protocol:
(§1) Rats were injected with 5-fluorouracil (5-FU) to cause immune suppression, then were treated with an injection of thymosin alpha 1 (200 ug/kg) or pegylated thymosin alpha 1 (20,000 MW PEG-Thymosin alpha 1) (the equivalent on a molar basis of 200 ug/kg of thymosin molecules) to determine the effect on immune parameters.

The subject of the next data set is activated T cells, CD25+. Briefly: Example 1: return of activated T cells in 5-FU immune-suppressed rats. The class given is in vivo, rat. As to conditions: one injection, molar equivalent of 200 ug/kg thymosin, compared with Thymosin alpha 1 200 ug/kg. Here is the method:
as §1

Regarding “Ac-SDAAVDTSSEITTKDLKEKKEVVEEAEN-OH [TA1, Thymosin alpha 1]”, in data set [1], the plasma half-life result was “about 2 hours”. The adverse events result in data set [2] (one rat given both injection 3.5 mg/Kg and continuous infusion of another 3.5 mg/Kg) is “no obvious adverse events”; in data set [2] (rats, doses 15 times higher than usual (in one animal 30 times higher)) it was “No adverse events were observed”. In data set [3], the “dose found to be safe for humans” value is recorded as not above 16 mg/kg body weight/day.

Regarding “PEG-Thymosin alpha 1: 20,000 molecular weight PEG conjugated to the N-terminal end of TA1 ({PEG 20 kDa}-SDAAVDTSSEITTKDLKEKKEVVEEAEN; ends and bridges not checked; UniProt P06454 2-29, looked up)”, in the data set with NK activity, the “return of NK activity (after depression by 5-FU)” value is recorded as “greater”. Besides, the “return of activated T cells, CD25+” value with activated T cells, CD25+ is given as “greater”.
